Structures are written as SMILES.

Holding throughout (type): biochemical
For experiment [1], the target named is T1, Recombinant human glycogen synthase kinase 3 beta (Homo sapiens, UniProt P49841). Briefly: GSK-3 beta inhibition assay (33P-ATP, GS-2 peptide). To be noted: 0.5 h, percentage of the enzyme activity (remaining), read-out: % Act. GSK-3 beta; for remaining activity at 25 µM: compound at 25 μM; for remaining activity at 50 µM: compound at 50 μM. On the procedure: The GSK-3 beta activity of the compounds of formula (I) according to the present invention was determined by incubation of a mixture of recombinant human GSK-3 enzyme, a phosphate source and GSK-3 substrate in the presence and in the absence of the corresponding test compound, and by measuring the GSK-3 activity of this mixture. The compounds where tested at final concentrations of 25 and 50 μM.
Recombinant human glycogen synthase kinase 3 beta was assayed in MOPS 11 mM, pH 7.4, EDTA 0.2 mM, EGTA 1.25 mM, MgCl2 26.25 mM and sodium orthovanadate 0.25 mM in the presence of 62.5 μM of Phospho-Glycogen Synthase Peptide-2 (GS-2), 0.5 μCi gamma-^33P-ATP and unlabelled ATP at a final concentration of 12.5 μM. The final assay volume was 20 μl. After incubation for 30 minutes at 30° C., 15 μl aliquots were spotted onto P81 phosphocellulose papers. Filters were washed four times for at least 10 minutes each and counted with 1.5 ml of scintillation cocktail in a scintillation counter.
The compounds of formula (I) of the present invention where submitted to the above indicated assay, in order to determine their GSK-3 inhibition activity. The results are indicated in Table II, in percentage of the enzyme activity.

The target of experiment [2] is T2, rhBACE-1 β-Secretase recombinant human (Homo sapiens, UniProt P56817).
T2 construct: purchased R&D Systems 931-AS
Description: BACE assay (FRET, fluorogenic peptide substrate). To be noted: for % BACE Activity: percentage of the enzyme activity (remaining). From the text: The aim of this assay is to determine if a compound, either synthetic or of marine origin, is a BACE-1 inhibitor, to avoid the formation of Aβ. This assay is based on FRET technology (Fluorescence Resonance Energy Transfer). FRET is used to measure cleavage of a peptide substrate, among other uses. […] When a substrate peptide cleavage occurs, the energy balance is broken and all the donor fluorescence can be observed. The increase in fluorescence is linearly related to the rate of proteolysis (Gordon, G W et al., 1998). In this assay the reaction occurs between an enzyme, purified BACE-1, and a fluorogenic peptidic substrate who present the “Swedish mutation”. The peptide cleavage by BACE-1 produces fluorescence energy and enzymatic activity can be quantified.
The reagents which are used in this assay are the following:
rhBACE-1 β-Secretase recombinant human (R&D Systems. Ref. 931-AS).
Fluorogenic Peptide Substrate IV (R&D Systems. Ref. ES004).
Beta-SECRETASE INHIBITOR H-4848. (BACHEM. Ref. H-4848.0001).
The assay is carried out in a 96 wells microplate. The final concentration of substrate is 3.5 μM per well, and the enzyme concentration is 0.5 μg/ml. The final volume of the assay is 100 μl per well and all reagents are diluted in Reaction Buffer.
The compounds are tested at a concentration of 10^−5 and 10^−6 M. The control in the assay is the commercial inhibitor β-Secretase inhibitor H-4848 from BACHEM, which is tested at 300 nM. All the samples and controls are studied by duplicate.
The plate is mixed gently and changes in the fluorescence are measured using a fluorimeter plate reader, with 320 nm excitation filter and 405 nm emission filter. The temperature should be preferably maintained between 25 and 30° C. Measurements are carried out every ten minutes during an hour. The first measure is subtracted from the last to calculate the fluorescence increase, evaluating the enzymatic activity. The 100% activity is calculated as the mean of the results of wells without sample or inhibitor.
In the cases where abnormal effects in fluorescence were detected, BACE inhibition activity was assayed using BACE-1 (beta-Secretase) FRET ASSAY KIT (Invitrogen, Ref. P2985). Fluorescence was measured with a fluorimeter plate reader, with 544 nm excitation filter and 580 nm emission filter.
Further information regarding this assay may be found in the following references, which are incorporated by reference into the present application: • Andrau, D et al; “BACE1- and BACE2-expressing human cells: characterization of beta-Amyloid precursor protein-derived catabolites, design of a novel fluorimetric assay, and identification of new in vitro inhibitors”. J Biol Chem. 2003 Jul. 11; 278(28):25859-66. • Gordon, G W et al; “Quantitative fluorescence resonance energy transfer measurements using fluorescence microscopy.” Biophys J. 1998 May; 74:2702-13.
The compounds of formula (I) of the present invention where submitted to the above indicated assay, in order to determine their BACE activity inhibition. The results are indicated in Table I, in percentage of the enzyme activity.

Experiment [3] addresses T1, Recombinant human glycogen synthase kinase 3 beta. Briefly: GSK-3 beta inhibition assay (33P-ATP, GS-2 peptide).

T1 sequence (P49841 whole entry): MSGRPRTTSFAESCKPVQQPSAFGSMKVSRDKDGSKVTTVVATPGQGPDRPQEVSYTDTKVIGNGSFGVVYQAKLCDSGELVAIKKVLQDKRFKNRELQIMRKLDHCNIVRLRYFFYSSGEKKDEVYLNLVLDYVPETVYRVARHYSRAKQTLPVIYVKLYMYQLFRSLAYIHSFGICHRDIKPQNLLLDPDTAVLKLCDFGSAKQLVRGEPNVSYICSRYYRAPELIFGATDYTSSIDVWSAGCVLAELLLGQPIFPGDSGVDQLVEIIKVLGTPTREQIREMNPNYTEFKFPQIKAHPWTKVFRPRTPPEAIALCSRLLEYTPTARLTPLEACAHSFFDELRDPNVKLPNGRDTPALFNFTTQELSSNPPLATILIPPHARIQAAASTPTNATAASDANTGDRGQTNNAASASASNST
T2 sequence (P56817 46-457 limits assumed): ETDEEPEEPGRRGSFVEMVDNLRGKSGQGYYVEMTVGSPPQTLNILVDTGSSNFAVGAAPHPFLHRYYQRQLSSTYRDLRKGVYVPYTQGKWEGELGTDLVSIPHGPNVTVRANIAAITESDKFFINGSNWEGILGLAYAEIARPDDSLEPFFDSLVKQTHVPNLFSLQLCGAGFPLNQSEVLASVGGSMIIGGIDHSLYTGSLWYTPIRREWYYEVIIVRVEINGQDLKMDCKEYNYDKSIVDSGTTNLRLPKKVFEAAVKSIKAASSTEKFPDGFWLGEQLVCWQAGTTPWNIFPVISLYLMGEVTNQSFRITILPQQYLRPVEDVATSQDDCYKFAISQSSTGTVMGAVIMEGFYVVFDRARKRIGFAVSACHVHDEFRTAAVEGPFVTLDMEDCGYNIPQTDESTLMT

The term IC50 denotes the concentration that inhibits the measured activity by half. In the case of `CC(=O)Oc1ccc(C(=O)O)cc1C/C=C(\C)CC/C=C(\C)CC/C=C(\C)CCC=C(C)C` [Compound 19], in experiment [1], the remaining activity at 25 µM stood at 10.7%. Further, the remaining activity at 50 µM in experiment [1] was 4.58%. Besides, the results for the 50% inhibitory concentration (IC50) in experiment [2] and in experiment [3] were 20.5 ± 2.8 µM and 2.77 µM, respectively. Further, the “% BACE Activity” value in experiment [2] (compound at 1 μM) was found to be 87 ± 14.5%; in experiment [2] (compound at 10 μM), 17.5 ± 0.7%.

Regarding `COCOC(=O)c1ccc(O)c(C/C=C(\C)CC/C=C(\C)CC/C=C(\C)CCC=C(C)C)c1` [Compound 25], in experiment [1], the remaining activity at 25 µM is 9.18% and the remaining activity at 50 µM is 4.5%. Also, the “% BACE Activity” value in experiment [2] (compound at 1 μM) turned out to be 100%. For the same molecule, in experiment [2] (compound at 10 μM), the “% BACE Activity” value came out at 100%. In experiment [3], the IC50 came to 22 µM.

Regarding `COCOc1ccc(C(=O)O)cc1C/C=C(\C)CC/C=C(\C)CCC=C(C)C` [Compound 28], in experiment [1], the remaining activity at 25 µM is 17.1% and the remaining activity at 50 µM amounted to 2.44%. For the same molecule, the “% BACE Activity” value in experiment [2] (compound at 1 μM) is reported as 87 ± 10%. Besides, the “% BACE Activity” value in experiment [2] (compound at 10 μM) amounted to 33 ± 7%. Further, the IC50 in experiment [3] turned out to be 18 µM.

(Values after patent US20110092591A1, “PHENYL-PRENYL DERIVATIVES, OF MARINE AND SYNTHETIC ORIGIN, FOR THE TREATMENT OF COGNITIVE, NEURODEGENERATIVE OR NEURONAL DISEASES OR DISORDERS” (NOSCIRA S.A., priority 2008, published 2011).)
